# Laboratory results taken from patent US20190015397A1, “SUBSTANCE THAT INHIBITS P2Y12 RECEPTOR, FOR USE IN THE PREVENTIVE TREATMENT OF SYSTEMIC SCLEROSIS IN PATIENTS WITH RAYNAUD'S PHENOMENON AND A DYSIMMUNITY” (UNIVERSITÉ DE BORDEAUX, priority 2016, published 2019).
# “Also recorded” adds a separate entry of the source.
# Assays:
# P2Y12 receptor = P2Y12 receptor (Homo sapiens, UniProt Q9H244); conditions: cited from earlier work
# [1] = system: healthy endothelial cells; test: TSLP production by healthy endothelial cells with platelets treated with acetylsalicylic acid; assay type: cell-based, human; conditions: doses 0, 10 and 1000 pg/ml
# Excerpt: FIG. 8: represents the in vitro TSLP production (pg/ml) by healthy endothelial cells in the presence of platelets from a first healthy non sclerodermic patient a second non sclerodermic patient previously treated with acetylsalicylic acid (aspirin, pg/ml) at a dose of 0, 10 and 1000 pg/ml.
# The endothelial TSLP production is not inhibited by healthy patients platelets treated with acetylsalicylic acid (aspirin active metabolite) (see FIG. 8).
# [2] = system: human normal microvascular endothelial cells; test: TSLP secretion by endothelial cells co-incubated with platelets from patients treated by P2Y12 inhibitors; assay type: cell-based; conditions: clopidogrel 75 mg or ticagrelor 90 mg per day; platelets:EC 200:1, 24 hrs, ELISA
# Protocol: FIG. 7: represents TSLP secretion (in pg/ml: A, or in %: B) by endothelial cells after stimulation by, from left to right, platelets from healthy donors (HD, n=6), patients treated by clopidogrel (n=3) or by ticagrelor (n=4). […] Supernatants were harvested and frozen before analysis. TSLP concentration was determined by ELISA.
# Briefly, platelets purified from healthy normal subject, or non-sclerodermic patients treated with clopidogrel (75 mg par jour), or a non-sclerodermic patient treated with ticagrelor (90 mg par jour), for preventing atherothrombotic events, were co-incubated with human normal microvascular endothelial cells at a 200:1 ratio for 24 hrs. Cell culture supernatant was collected and TSLP content was measured using a dedicated commercial ELISA kit.
# [3] = system: mice models of scleroderma; conditions: two mice models of scleroderma; cited from earlier work
# patients with SSc = conditions: cited from earlier work
# [4] = system: human dermal microvascular endothelial cells (HDMEC); test: TSLP production by human dermal microvascular EC stimulated with cytokines/reagents (ELISA, RTqPCR); assay type: cell-based
# Protocol: FIG. 4: IL1β-stimulated human dermal microvascular endothelial cells (HDMEC) produce TSLP. Normal HDMEC were purified from normal skin (plastic surgery) and stimulated 24 hrs with (A) cytokines potentially involved in SSc and the TLR4 agonist LPS or (B) increasing amount of IL1β (from 10 to 50 ng/ml) in complete MV-2 medium (M). Supernatants were harvested and TSLP content was measured by dedicated ELISA from eBioscience. Mean and SD from 3 (A) and 6 (B) independent experiments. (C) Quantification of TSLP mRNA from IL1β (50 ng/mL) activated HDMEC using RTqPCR, one representative experiment out of 3. *P<0.05 and ***P=0.0004 using Kruskal Wallis test.
# (§1) (A) 70000 HDMEC were cultured for 24 hrs in 24-well culture plate in MV-2 complete medium along with increasing amount of purified non-activated platelets (white bars) or adenosine diphosphate-activated platelets (black bars) (from 10 to 200 platelets for 1 HDMEC). […] (B) HDMEC were stimulated with ADP-activated platelets with or without anti-IL1β blocking antibody. Condition “platelet-” is a comparison without platelets. […] (C) HDMEC were stimulated with increasing doses of serotonin (from 0 to 90 ng/ml). A Wilcoxon test was used. (*p=0.013). (D) HDMEC were stimulated with ADP-activated platelets (ratio HDMEC:platelets=1:200) with or without blocking anti-IL1β with or without 5HT-receptors (5HTR2a and 5HTR2b) blocking antibodies. […] Supernatants were harvested and TSLP content was measured using dedicated ELISA. Results are mean and SEM from 3 independent experiments.
# (§2) TSLP levels in cell culture supernatants or serum was quantified using an ELISA kit from eBiosciences following the manufacturer's instruction.
# (§3) Human dermal microvascular EC were cultured in complete MV2 growth medium in a 96 well-plates with flat bottom (20000 cells per well in 200 μl) and allowed to stand overnight before adding different reagents (IL-1β, IL-4, IL-13, TNF-α, IFN-γ, LPS, 5HT or Tryptase) or platelets ADP-activated or not for 24 h at 37° C. […]
# human dermal fibroblasts = test: Pro-fibrotic mRNA profile of activated human dermal fibroblasts (RT-qPCR); assay type: cell-based; conditions: for MMP-1 mRNA expression / collagen1A1 mRNA / collagen/collagenase ratio (COL1A1 on MMP-1 mRNA): HD dermal fibroblasts; for MMP-1 mRNA expression / collagen1A1 mRNA / collagen/collagenase ratio (COL1A1 on MMP-1 mRNA) / MCP-1 mRNA expression: 48 h; for MCP-1 mRNA expression: human dermal fibroblasts
# Protocol: Human dermal fibroblasts were isolated from healthy skin and incubated 48 h with DMEM, IL1β, recombinant TSLP or TGFβ1. (A) Quantification of Col1A1 mRNA from activated fibroblasts using RT-qPCR from 3 different healthy donors was expressed in ΔΔCT with DMEM as the baseline condition. (B) Quantification of MMP-1 mRNA from activated fibroblasts using RTqPCR, results of 3 different healthy donors. (C) Ratio of COL1A1 on MMP-1 (collagenase) mRNA from activated normal fibroblasts using RT-qPCR, results of 3 different healthy donors (left panel) and 3 SSc patients (right panel). Among SSc patients, two patients were dcSSc and fibroblasts came from TSLP+ fibrotic skin (patients #1 and 2), the other was a IcSS and fibroblasts came from TSLP-low fibrotic skin (patient #3). (D) Quantification of MCP-1 from activated normal fibroblasts using RT-qPCR, results of 3 different donors. Kruskal Wallis test was used to compare the mean of mRNA expression levels. *P<0.05.
# Fibroblasts were obtained from […] skin biopsy samples from 3 healthy donors as described elsewhere (Truchetet M E, Brembilla N C, Montanari E, et al. Interleukin-17A+ cell counts are increased in systemic sclerosis skin and their number is inversely correlated with the extent of skin involvement. Arthritis Rheum 2013; 65:1347-1356 ([24])).
# Total RNA was isolated from trypsinized fibroblasts with the NucleoSpin RNA II extraction system (Macherey-Nagel, Duren, Germany) and cDNA synthesized from […] of total RNA using random hexamers and Superscript III reverse transcriptase (Invitrogen, Carlsbad, Calif.) according to manufacturer's instructions. Gene expression was quantified using SYBR green performed on a SDS 7900 HT instrument (Applied Biosystems). Specific primer pairs for each gene described in supplementary material (Datta A, Alexander R, Sulikowski M G, et al. Evidence for a functional thymic stromal lymphopoietin signaling axis in fibrotic lung disease. J Immunol 2013; 191:4867-4879 ([25]); Brembilla N C, Montanari E, Truchetet M E, et al. Th17 cells favor inflammatory responses while inhibiting type I collagen deposition by dermal fibroblasts: differential effects in healthy and systemic sclerosis fibroblasts. Arthritis Res Ther 2013; 15:R151 ([26]); Yoda A, Yoda Y, Chiaretti S, et al. Functional screening identifies CRLF2 in precursor B-cell acute lymphoblastic leukemia. Proc Natl Acad Sci USA 2010; 107:252-257 ([27]); Le Q T, Gomez G, Zhao W, et al. Processing of human protryptase in mast cells involves cathepsins L, B, and C. J Immunol 2011; 187:1912-1918 ([28])). Each reaction was performed in triplicates. […] Oligonucleotides were obtained from Sigma-Aldrich. Differences were calculated with the threshold cycle (Ct) and the comparative Ct method for relative quantification.
# [5] = system: human dermal microvascular endothelial cells (HDMEC); test: Platelet-induced TSLP production in platelet/EC co-culture with blocking antibodies; assay type: cell-based; conditions: ADP-activated platelets
# Protocol: as §1, §2, §3
# Sequence of P2Y12 receptor (Q9H244 whole entry): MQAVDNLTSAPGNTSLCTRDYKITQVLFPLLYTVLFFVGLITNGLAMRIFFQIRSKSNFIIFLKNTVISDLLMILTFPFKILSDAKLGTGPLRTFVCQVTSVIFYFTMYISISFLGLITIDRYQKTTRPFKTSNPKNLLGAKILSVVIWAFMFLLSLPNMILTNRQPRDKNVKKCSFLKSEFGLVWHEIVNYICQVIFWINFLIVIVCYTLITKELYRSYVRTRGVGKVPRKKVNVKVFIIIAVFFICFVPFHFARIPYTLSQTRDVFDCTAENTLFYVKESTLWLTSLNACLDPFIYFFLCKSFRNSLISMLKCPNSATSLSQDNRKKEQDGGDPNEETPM
molecule,measurement,setting,value
CCCSc1nc(N[C@@H]2C[C@H]2c2ccc(F)c(F)c2)c2nnn([C@@H]3C[C@H](O)[C@@H](O)[C@H]3O)c2n1 [AR-C124910XX],potency of active metabolite relative to ticagrelor,P2Y12 receptor,approximately equipotent
CC(=O)Oc1ccccc1C(=O)O [acetylsalicylic acid],endothelial TSLP production with acetylsalicylic acid-treated platelets,[1],not inhibited
same,endothelial TSLP production with acetylsalicylic acid-treated platelets,[1]; listed as aspirin,not observed
COC(=O)[C@H](c1ccccc1Cl)N1CCc2sccc2C1 [clopidogrel],dermal thickness,bleomycin-injected mice; clopidogrel 25 mg/kg/d per os from 15 days before bleomycin 30 μg/mice s.c.,reduces the dermal thickness
same,skin fibrotic effect of Bleomycin,bleomycin-injected mice; clopidogrel pre-treatment 25 mg/kg/d per os,significantly reduces
same,development of digital ulcers,bleomycin-injected mice; preventive treatment of mice before the establishment of fibrosis,not associated with development of digital ulcers
same,TSLP production by endothelial cells induced by platelets of treated patients,[2],failed to induce TSLP production; also recorded: can block the pro-fibrotic TSLP molecule expression
same,fibrosis,[3],reduces fibrosis
same,markers of endothelial function and new digital ulcers,patients with SSc,may worsen markers of endothelial function and associate with development of new digital ulcers
"NCCc1c[nH]c2ccc(O)cc12 [serotonin, reference compound]",TSLP production by dermal microvascular EC,"[4]; serotonin at 90 ng/ml, vs 0.75±0.5 pg/ml for EC alone",58.9 ± 11.4 pg/mL
CCCSc1nc(N[C@@H]2C[C@H]2c2ccc(F)c(F)c2)c2nnn([C@@H]3C[C@H](OCCO)C(O)C3O)c2n1 (stereo partly drawn) [ticagrelor],TSLP production by endothelial cells induced by platelets of treated patients,[2],failed to induce TSLP production
IL1β: pro-inflammatory cytokine used as stimulus,MMP-1 mRNA expression,human dermal fibroblasts,5.7±1.7 fold increase vs medium condition
same,collagen1A1 mRNA,human dermal fibroblasts,1.7±0.4 fold increase vs medium condition
same,collagen/collagenase ratio (COL1A1 on MMP-1 mRNA),human dermal fibroblasts,0.47±0.3 fold increase vs medium condition
same,MCP-1 mRNA expression,human dermal fibroblasts,52.7±11.2 fold increase vs medium condition
same,TSLP production by dermal microvascular EC (protein),"[4]; IL1β stimulation 24 hrs, vs 7.4±3.5 pg/ml with dermal microvascular EC alone",651.7 ± 95.4 pg/mL
same,TSLP expression at the transcriptomic level,"[4]; RTqPCR, IL1β 50 ng/mL",increase the expression of TSLP
TGFβ: cytokine used as control condition on fibroblasts,MMP-1 mRNA expression,human dermal fibroblasts,0.56±0.14 fold increase vs medium condition
same,collagen1A1 mRNA,human dermal fibroblasts,5.35±0.9 fold increase vs medium condition
same,MCP-1 mRNA expression,human dermal fibroblasts,0.31±0.09 fold increase vs medium condition
canakinumab: monoclonal antibody blocking IL-1β,platelet-induced TSLP production,"[5]; FIG. 5B, blocking antibody 10 μg/mL, vs 64.8±3.9 pg/ml without antibody",20.9 ± 3.7 pg/mL
same,TSLP production in platelet/EC co-culture,"[5]; HDMEC:platelets=1:200, FIG. 5D, vs 649±13.8 pg/ml in platelet/EC",335.1 ± 28.5 pg/mL
rTSLP: recombinant Thymic Stromal Lymphopoietin,MMP-1 mRNA expression,human dermal fibroblasts,0.59±0.06 fold increase vs medium condition
same,collagen1A1 mRNA,human dermal fibroblasts,1.5±0.06 fold increase vs medium condition
same,collagen/collagenase ratio (COL1A1 on MMP-1 mRNA),human dermal fibroblasts,2.6±0.3 fold increase vs medium condition
same,collagen/collagenase ratio in SSc fibroblasts,"human dermal fibroblasts; fibroblasts from TSLP+ fibrotic skin of two dcSSc patients, compared to lcSSc patient or normal fibroblasts",lower collagen/collagenase ratio
same,MCP-1 mRNA expression,human dermal fibroblasts,0.48±0.02 fold increase vs medium condition
